Key:
Experiment in all cases: biochemical
Set-up in all cases: species or system HEK293/K-562/placenta mixed human extract; Kinobeads chemoproteomic competition binding, quantified by TMT LC-MS/MS, dose response up to 20 uM
CDKL5 = CDKL5 (Homo sapiens, UniProt O76039)
PKMYT1 = PKMYT1 (Homo sapiens, UniProt Q99640)
PRKCB = PRKCB (Homo sapiens, UniProt P05771)
EPHA2 = EPHA2 (Homo sapiens, UniProt P29317)
STK3 = STK3 (Homo sapiens, UniProt Q13188)
OXSR1 = OXSR1 (Homo sapiens, UniProt O95747)
NEK9 = NEK9 (Homo sapiens, UniProt Q8TD19)
Chain of NEK9 (Q8TD19 whole entry): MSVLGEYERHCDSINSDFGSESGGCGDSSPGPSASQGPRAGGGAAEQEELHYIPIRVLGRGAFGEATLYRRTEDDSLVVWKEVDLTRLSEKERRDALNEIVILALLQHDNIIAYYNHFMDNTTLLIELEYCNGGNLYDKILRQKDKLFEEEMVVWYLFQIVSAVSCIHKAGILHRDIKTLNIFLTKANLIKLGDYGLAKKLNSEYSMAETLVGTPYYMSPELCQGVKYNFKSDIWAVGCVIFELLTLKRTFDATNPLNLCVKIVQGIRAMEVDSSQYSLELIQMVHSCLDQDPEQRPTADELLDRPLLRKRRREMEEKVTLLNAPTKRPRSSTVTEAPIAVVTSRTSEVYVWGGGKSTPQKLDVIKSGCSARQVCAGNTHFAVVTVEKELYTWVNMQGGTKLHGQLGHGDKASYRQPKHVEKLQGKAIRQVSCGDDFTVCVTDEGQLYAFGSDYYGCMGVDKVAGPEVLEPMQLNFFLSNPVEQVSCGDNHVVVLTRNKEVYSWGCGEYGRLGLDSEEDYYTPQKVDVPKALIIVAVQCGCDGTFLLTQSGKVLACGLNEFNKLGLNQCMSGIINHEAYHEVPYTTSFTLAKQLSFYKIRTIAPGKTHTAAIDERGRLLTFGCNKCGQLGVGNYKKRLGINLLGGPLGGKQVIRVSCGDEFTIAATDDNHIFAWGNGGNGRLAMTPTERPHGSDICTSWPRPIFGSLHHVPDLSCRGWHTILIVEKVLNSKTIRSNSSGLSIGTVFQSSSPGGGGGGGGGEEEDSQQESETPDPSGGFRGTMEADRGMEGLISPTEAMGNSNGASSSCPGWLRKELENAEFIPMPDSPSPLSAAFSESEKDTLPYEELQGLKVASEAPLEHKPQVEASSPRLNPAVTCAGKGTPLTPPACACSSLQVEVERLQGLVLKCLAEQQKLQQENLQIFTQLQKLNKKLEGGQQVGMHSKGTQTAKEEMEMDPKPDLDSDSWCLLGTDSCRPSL

MAP2K1 = MAP2K1 (Homo sapiens, UniProt Q02750)
CAMK2G = CAMK2G (Homo sapiens, UniProt Q13555)
Chain of CAMK2G (Q13555 whole entry): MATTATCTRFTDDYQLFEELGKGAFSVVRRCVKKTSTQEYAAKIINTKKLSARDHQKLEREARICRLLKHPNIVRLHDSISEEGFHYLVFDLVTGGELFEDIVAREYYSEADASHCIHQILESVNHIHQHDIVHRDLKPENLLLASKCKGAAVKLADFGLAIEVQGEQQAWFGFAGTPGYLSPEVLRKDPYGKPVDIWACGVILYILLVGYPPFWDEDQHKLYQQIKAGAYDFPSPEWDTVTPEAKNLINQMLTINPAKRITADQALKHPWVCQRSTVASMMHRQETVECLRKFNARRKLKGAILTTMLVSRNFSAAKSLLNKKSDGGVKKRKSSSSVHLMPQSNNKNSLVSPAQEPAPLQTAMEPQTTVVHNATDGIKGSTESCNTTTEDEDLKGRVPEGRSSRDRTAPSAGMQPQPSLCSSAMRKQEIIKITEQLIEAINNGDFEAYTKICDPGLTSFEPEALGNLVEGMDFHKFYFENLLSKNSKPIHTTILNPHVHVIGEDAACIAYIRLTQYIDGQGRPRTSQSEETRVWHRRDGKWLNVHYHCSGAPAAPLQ

PIK3R4 = PIK3R4 (Homo sapiens, UniProt Q99570)
NEK1 = NEK1 (Homo sapiens, UniProt Q96PY6)
Chain of NEK1 (Q96PY6 whole entry): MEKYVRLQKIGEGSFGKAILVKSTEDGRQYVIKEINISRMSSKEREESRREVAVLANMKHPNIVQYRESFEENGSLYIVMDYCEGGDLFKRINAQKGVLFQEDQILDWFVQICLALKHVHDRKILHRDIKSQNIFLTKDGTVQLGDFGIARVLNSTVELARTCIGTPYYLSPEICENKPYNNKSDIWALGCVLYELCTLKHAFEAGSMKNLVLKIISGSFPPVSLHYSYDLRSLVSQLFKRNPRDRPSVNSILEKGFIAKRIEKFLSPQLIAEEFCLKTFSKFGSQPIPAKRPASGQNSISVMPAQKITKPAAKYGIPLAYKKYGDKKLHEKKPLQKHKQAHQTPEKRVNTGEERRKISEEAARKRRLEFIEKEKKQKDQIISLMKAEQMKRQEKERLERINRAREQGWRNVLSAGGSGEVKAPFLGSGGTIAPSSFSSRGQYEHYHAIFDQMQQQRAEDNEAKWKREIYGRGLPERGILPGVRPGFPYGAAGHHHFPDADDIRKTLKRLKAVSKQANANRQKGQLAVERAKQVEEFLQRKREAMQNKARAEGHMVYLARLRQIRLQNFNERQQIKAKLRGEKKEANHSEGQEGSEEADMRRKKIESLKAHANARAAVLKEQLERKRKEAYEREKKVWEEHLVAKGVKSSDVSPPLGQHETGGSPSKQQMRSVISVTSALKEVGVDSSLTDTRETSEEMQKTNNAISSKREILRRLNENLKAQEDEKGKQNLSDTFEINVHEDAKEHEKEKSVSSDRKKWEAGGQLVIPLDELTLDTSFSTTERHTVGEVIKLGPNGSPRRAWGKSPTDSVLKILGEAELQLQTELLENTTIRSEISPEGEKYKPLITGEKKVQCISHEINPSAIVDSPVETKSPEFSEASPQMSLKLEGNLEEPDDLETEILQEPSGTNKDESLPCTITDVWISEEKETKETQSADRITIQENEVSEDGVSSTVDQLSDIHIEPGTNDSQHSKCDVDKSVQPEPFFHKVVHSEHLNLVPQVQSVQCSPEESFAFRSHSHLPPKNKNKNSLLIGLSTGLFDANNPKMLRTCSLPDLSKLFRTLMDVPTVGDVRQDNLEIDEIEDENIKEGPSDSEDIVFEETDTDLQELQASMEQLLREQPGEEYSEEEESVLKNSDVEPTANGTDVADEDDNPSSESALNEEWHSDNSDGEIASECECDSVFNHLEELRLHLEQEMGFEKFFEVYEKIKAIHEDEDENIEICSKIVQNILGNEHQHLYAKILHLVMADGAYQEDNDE

mTOR = mTOR (Homo sapiens, UniProt P42345)
CSNK2A1 = CSNK2A1 (Homo sapiens, UniProt P68400)
ABL2 = ABL2 (Homo sapiens, UniProt P42684)
KIT = KIT (Homo sapiens, UniProt P10721)
MAP2K6 = MAP2K6 (Homo sapiens, UniProt P52564)
TAOK3 = TAOK3 (Homo sapiens, UniProt Q9H2K8)
MARK4 = MARK4 (Homo sapiens, UniProt Q96L34)
Chain of MARK4 (Q96L34 whole entry): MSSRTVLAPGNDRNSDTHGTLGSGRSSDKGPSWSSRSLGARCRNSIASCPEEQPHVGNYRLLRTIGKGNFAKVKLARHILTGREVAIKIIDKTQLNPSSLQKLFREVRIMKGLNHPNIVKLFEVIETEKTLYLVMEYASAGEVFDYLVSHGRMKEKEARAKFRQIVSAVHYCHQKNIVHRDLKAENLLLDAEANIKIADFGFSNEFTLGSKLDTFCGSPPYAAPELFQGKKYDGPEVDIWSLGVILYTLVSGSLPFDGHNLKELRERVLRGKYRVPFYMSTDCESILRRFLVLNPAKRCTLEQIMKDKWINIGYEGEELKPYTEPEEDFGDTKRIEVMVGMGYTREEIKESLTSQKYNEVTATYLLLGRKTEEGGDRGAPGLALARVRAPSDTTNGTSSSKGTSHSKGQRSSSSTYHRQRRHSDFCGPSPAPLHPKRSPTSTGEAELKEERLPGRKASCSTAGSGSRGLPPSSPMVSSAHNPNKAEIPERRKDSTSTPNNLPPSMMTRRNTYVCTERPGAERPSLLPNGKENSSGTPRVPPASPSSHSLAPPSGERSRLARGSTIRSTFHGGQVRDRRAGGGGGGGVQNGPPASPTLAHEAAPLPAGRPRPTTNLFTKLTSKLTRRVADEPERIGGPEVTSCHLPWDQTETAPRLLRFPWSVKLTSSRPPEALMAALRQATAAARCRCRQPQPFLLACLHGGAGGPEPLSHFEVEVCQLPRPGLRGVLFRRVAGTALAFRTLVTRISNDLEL

CSNK1A1 = CSNK1A1 (Homo sapiens, UniProt P48729)
EPHB3 = EPHB3 (Homo sapiens, UniProt P54753)
MERTK = MERTK (Homo sapiens, UniProt Q12866)

Measured: IC50

Chain of PKMYT1 (Q99640 whole entry): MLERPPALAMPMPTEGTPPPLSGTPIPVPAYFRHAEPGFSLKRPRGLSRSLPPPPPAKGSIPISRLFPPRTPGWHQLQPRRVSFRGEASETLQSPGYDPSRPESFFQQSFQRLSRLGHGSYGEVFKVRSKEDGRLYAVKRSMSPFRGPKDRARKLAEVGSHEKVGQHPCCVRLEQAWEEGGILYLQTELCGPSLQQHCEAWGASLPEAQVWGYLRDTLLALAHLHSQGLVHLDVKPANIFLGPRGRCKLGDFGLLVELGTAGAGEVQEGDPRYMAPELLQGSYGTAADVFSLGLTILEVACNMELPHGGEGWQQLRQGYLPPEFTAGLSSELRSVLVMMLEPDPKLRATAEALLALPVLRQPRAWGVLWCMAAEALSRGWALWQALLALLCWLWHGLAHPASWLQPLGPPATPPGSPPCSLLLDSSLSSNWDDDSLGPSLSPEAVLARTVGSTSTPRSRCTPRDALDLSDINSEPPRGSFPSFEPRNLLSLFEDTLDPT
Chain of EPHA2 (P29317 whole entry): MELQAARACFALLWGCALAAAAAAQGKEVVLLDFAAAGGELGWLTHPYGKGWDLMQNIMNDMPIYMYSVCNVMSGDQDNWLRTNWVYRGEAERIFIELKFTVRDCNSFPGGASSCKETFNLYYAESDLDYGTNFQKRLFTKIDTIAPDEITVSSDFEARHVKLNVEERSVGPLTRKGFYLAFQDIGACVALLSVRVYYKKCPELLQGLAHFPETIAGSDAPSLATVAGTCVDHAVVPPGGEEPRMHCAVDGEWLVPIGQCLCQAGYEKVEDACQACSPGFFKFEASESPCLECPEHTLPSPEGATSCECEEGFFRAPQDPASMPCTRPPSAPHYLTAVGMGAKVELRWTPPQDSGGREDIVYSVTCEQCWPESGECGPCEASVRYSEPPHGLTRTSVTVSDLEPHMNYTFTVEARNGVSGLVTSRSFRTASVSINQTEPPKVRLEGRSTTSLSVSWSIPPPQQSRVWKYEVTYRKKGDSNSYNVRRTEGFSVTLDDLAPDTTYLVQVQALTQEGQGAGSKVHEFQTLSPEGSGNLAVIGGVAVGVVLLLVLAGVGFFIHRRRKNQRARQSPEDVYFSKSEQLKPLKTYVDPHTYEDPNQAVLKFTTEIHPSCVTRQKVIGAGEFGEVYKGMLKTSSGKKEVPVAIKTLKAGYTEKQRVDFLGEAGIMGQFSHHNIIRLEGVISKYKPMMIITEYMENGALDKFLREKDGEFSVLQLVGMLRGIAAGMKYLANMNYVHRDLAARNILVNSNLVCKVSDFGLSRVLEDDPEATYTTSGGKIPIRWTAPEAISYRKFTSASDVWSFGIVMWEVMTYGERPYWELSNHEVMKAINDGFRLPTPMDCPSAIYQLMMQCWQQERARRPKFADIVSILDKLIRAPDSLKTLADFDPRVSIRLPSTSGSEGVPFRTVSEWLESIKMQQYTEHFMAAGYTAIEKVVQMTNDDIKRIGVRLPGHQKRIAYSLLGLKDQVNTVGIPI

COc1nc(N[C@H]2CC[C@H](NS(=O)(=O)CC(C)C)CC2)nc2[nH]nc(N3CCOC[C@H]3C)c12 [compound 39, N-(trans-4-((4-Methoxy-3-((R)-3-methylmorpholino)-1H-pyrazolo[3,4-d]pyrimidin-6-yl)amino)cyclohexyl)-2-methylpropane-1-sulfonamide]
≥ 20 µM: all assays above

From publication PMC6407917, “Identification of GSK3186899/DDD853651 as a Preclinical Development Candidate for the Treatment of Visceral Leishmaniasis” (Journal of Medicinal Chemistry, 2018)
